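Following 48 hours of exposure in 96-well plates, responses at five concentrations were used to interpolate endpoints linearly. At the GI50, growth is halved. TGI is the concentration that stops growth completely.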
Test system: SF-539 CNS
Assay: NCI anticancer screen, dose series, 48 h

| Structure (SMILES) | GI50 [µM] | TGI [µM] |
| --- | --- | --- |
| Cn1c(=O)c(Cc2ccccc2F)cc2cnc(NC3CCOCC3)nc21 | > 25 | > 25 |
| O=C1CSC(/C(=N/Nc2ccccc2)c2nc3ccccc3[nH]2)=N1 | – | 85.2 |
| Cc1[nH]c2ccccc2c(=O)c1CC=C(Cl)Cl | 39.4 | > 100 |
| C1CCC([PH+](C2CCCCC2)C2CCCCC2[PH+](C2CCCCC2)C2CCCCC2)CC1.O=C(C1[CH-]CCCC1)C1CCCC[N-]1.[Au] (configuration not stated) | 0.31 | 1.28 |
| O=C(c1ccccc1)C1OC12C(=O)Nc1ccccc12 (configuration not stated) | – | 57.4 |
| COc1ccc2nc(NC(=O)C(=O)C(C#N)c3ccc([N+](=O)[O-])cc3)sc2c1 (configuration not stated) | – | > 100 |
| O=C(O)[C@H](NS(=O)(=O)c1ccc([N+](=O)[O-])cc1)c1ccccc1 | – | > 100 |
| CC(C)C[C@H](NC(=O)/C=C/Cn1ccc2ccccc2c1=O)B(O)O | 2.16 | 6.45 |
| S=C1OC2CCCC[C@H]2O1 (some centres not stated) | – | > 100 |
| O=C1/C(=C/c2cccc([N+](=O)[O-])c2)COc2ccc(Br)cc21 | – | > 100 |
| COc1c(CCl)cc(-c2cc(=O)c3ccccc3s2)cc1CCl | – | > 42.3 |
| CSC(C1c2ccccc2N(c2ccc(C)cc2)c2[nH]c(=O)n(C)c(=O)c21)S(=O)(=O)c1ccc(C)cc1 (configuration not stated) | – | > 100 |
| CCOC(=O)NC(=O)c1cn(CCCOC(=O)CCCCCCCCCCC(=O)OCCCn2cc(C(=O)NC(=O)OCC)c(=O)[nH]c2=O)c(=O)[nH]c1=O | – | > 100 |
| COc1cc(/C=C(\C#N)c2ccccc2)cc(OC)c1 | – | > 100 |
| N#Cc1cccnc1Cl | – | > 100 |
| CCCCCCCCCCCC(=O)OCC1OC(OC)C(NC(=O)N(CCCl)N=O)C(O)C1O (configuration not stated) | – | 14.8 |
| C=CC/C=C/C/C=C/CCCCCCCc1cccc(O)c1C(=O)O | – | > 100 |
| CCn1c(SCc2ccc(C)cc2)nnc1-c1nn(-c2ccc(Cl)cc2Cl)c(-c2ccc(Cl)cc2)c1C | 3.02 | 11.8 |
| O=C(Nc1c(Cl)cc([N+](=O)[O-])cc1Cl)C(=O)C(C1OC(=O)c2ccccc21)[N+](=O)[O-] (configuration not stated) | – | > 100 |
| Cc1c(C(=O)/C=C/c2ccccc2)[n+](=O)c2ccccc2n1[O-] | – | 29.7 |
| N#CC1CC2(C1)OCCS2 (configuration not stated) | – | > 100 |
| COc1cc(NC(C)CCCN)c2nccc(C)c2c1 (configuration not stated) | – | 35.3 |
| C1C[OH+]CC[OH+]CC[OH+]CC[OH+]CC[OH+]1.[Cl-].[V] | 16.5 | 31.6 |
| c1ccc(C2Nc3ccccc3C3OCCCC23)cc1 (configuration not stated) | – | 31.5 |

Test system: SN12C renal
Assay: NCI anticancer screen, dose series, 48 h

| Structure (SMILES) | GI50 [µM] | TGI [µM] |
| --- | --- | --- |
| Nc1ccc(-c2nc3ccc(Cc4ccc5nc(-c6ccc(N)cc6)[nH]c5c4)cc3[nH]2)cc1 | 8.75 | 29 |
| O=C1[C@@H]2C(c3ccccc3F)=NO[C@@H]2C(=O)N1c1ccc(Cc2ccc(N3C(=O)[C@H]4C(c5ccccc5F)=NO[C@H]4C3=O)cc2)cc1 | – | > 100 |
| C=CCc1ccc(Oc2cc(CC=C)c3c(c2O)O[C@@H](CO)[C@H]3c2ccc(O)c(-c3cc(CC=C)ccc3O)c2)cc1 | – | > 100 |
| Cn1c2ccccc2c(=O)c2ccc(Cl)cc21 | – | > 10 |
| CC(CO)(CO)NCCCCn1ccc2c1C(=O)c1c(c(O)c3ccccc3c1O)C2=O | 11.2 | 24.2 |
| O=C(NCO)NCOCn1c(=O)n(CO)c(=O)n(CO)c1=O | – | > 100 |
| CCSc1nc(SCC)c2cn[nH]c2n1 | 47.7 | > 100 |
| COc1ccc(CCN2COc3c([C@@H](C)CCC=C(C)C)ccc(C)c3C2)cc1OC | 3.27 | 13.5 |
| O=C1OC2CCCC[C@@H]2C2C[C@]34CCCCC3[C@@H](C(=O)O4)C12 (some centres not stated) | – | > 100 |
| CN(C)c1cc[c]([Sn]([c]2ccc(N(C)C)cc2)([c]2ccc(N(C)C)cc2)[c]2ccc(N(C)C)cc2)cc1 | > 100 | > 100 |
| CCCSc1nc(COC(=O)NC)c(COC(=O)NC)n1C | – | > 100 |
| O=C1CCC(O)=C1N=Nc1ccccc1 | – | > 100 |
| CCN(CC)c1ccc(N=Nc2ccc(-c3nc4ccc[n+](C)c4s3)cc2)cc1 | – | 16.2 |
| NC(=O)NCc1c(C(N)=O)ncn1Cc1ccccc1 | – | > 100 |
| Cn1c(=O)c(Cc2ccccc2F)cc2cnc(NC3CCOCC3)nc21 | > 25 | > 25 |
| O=C1CSC(/C(=N/Nc2ccccc2)c2nc3ccccc3[nH]2)=N1 | – | > 100 |

Source: PubChem BioAssay (NCI)
